Laboratory results: a melting point compilation (Tetko et al.; mined from patent text by program, amines drawn as free bases though some values may be those of a salt)

Row | SMILES | melting point [°C]
1 | CCOC(=O)COc1ccc(C(=O)[C@H](Cc2ccc(OC)cc2)NC(=O)OC(C)(C)C)cc1 | 95 to 97
2 | C=C(CC(Cl)(Cl)Cl)c1cc(Cl)nc(Cl)c1 | 82 to 83
3 | CCN(C(=O)Cn1c(=O)n(C)c2nc(-c3ccccc3)ncc21)c1ccc(O)cc1 | 254 to 256
4 | Nc1ccc2c3c(cccc13)C(=O)N2 | 240 to 242
5 | O=c1c2cccnc2c(-c2cccc(Cl)c2)cn1Cc1ccccc1 | 149 to 150
6 | Cc1cc(N2CCC(CN3CCN(S(=O)(=O)c4ccc(Br)cc4)CC3)CC2)nc(C)n1 | 73 to 74
7 | CCSc1nc(=O)[nH]cc1C | 181 to 184
8 | CCCc1c(OCCCOc2ccc3c(c2CCC)OC(CCC(=O)OC)CC3=O)ccc(C(C)=O)c1O (stereo not drawn) | 101 to 102
9 | COc1ccc([C@@H]2Cc3cc(OC)ccc3NC(=O)[C@@H]2O)cc1 | 171 to 173
10 | COc1ccc2cc([C@H](C)C(=O)OCCS(=O)(=O)CCO)ccc2c1 | 81 to 84
11 | C=CCN1CCc2cc(OC)c(O)c3c2C1Cc1cc(O)c(OC)cc1-3 (single isomer, unassigned; (+)) | 161 to 171
12 | CC1(C)Oc2ccc(S(=O)(=O)C(F)(F)F)cc2[C@@H](N2Cc3c(cccc3[N+](=O)[O-])C2=O)[C@@H]1O (relative stereo) | 292 to 295
13 | O=C(Nc1ccc(-c2c[nH]c(=O)cn2)cc1)c1ccncc1 | 303 to 308
14 | COc1cc2c(cc1NCc1ccccc1)ncc1c(N)nc(-c3cccnc3)cc12 | 251 to 258
15 | C=CCNC(=S)N1CCc2[nH]cnc2C1CC (stereo not drawn) | 205
16 | CCCCc1nc2cnc3cccnc3c2n1CCOc1ccccc1 | 150
17 | CSc1c(NCc2ccncc2)cnn(C(C)(C)C)c1=O | 107 to 110
18 | OCc1cn(Cc2ccc(OCc3ccccc3)cc2)nc1-c1ccc(F)cc1 | 112 to 113
19 | CC(=O)Nc1c(C(=O)c2ccoc2)[nH]c2cc(Cl)ccc12 | 217 to 219
20 | COc1ccc(CNc2ncnc(Cl)c2N)cc1 | 187 to 188
21 | CCCCc1nn2ccccc2c1C(=O)c1ccccc1C#N | 116
22 | O=C(CCC(=O)N1Cc2c(cc3ccc4c(c3c2-c2ccc3c(c2)OCO3)OCO4)C1=O)OCc1ccccc1 | 128 to 129

Row | SMILES | melting point [°C]
23 | Cn1c(COc2cccc(C(=O)O)c2)nc2ccc(Oc3cccc(OC(F)(F)F)c3)cc21 | 221 to 227
24 | C#Cc1ccc(C23OCC(c4ccc(F)c(F)c4)(CO2)CO3)cc1 | 204 to 205
25 | COc1ccc2c(c1O)NC(=O)C1CCCN1C2=O (stereo not drawn) | 275 to 278
26 | COc1ccc(-c2sc3c(c2CBr)c(=O)c(-c2cnco2)cn3Cc2ccccc2F)cc1 | 234 to 236
27 | C1=CCC2=C3C(=NC2=C1)SCCC3CNCc1ccccc1 (stereo not drawn) | 118
28 | CN(C)C1CCC(Nc2ncnc3sc4c(c23)CCC4)CC1 (stereo not drawn) | 97 to 98
29 | OCc1cc(F)cc(Br)c1 | 41 to 43
30 | c1csc(-c2nc3ccc(N4CCC(N5CCCC5)CC4)nn3c2-c2ccncc2)c1 | 85
31 | O=C(c1ccccc1)c1nc(Cl)ccc1[N+](=O)[O-] | 107
32 | CCC(=O)N[C@@H]1Cc2ccccc2N(OC)C1=O | 98 to 99
33 | COC(=O)c1ccc(-c2ccc(NC(=O)c3ccc(OC)c(C#CCN(C)C)c3)cc2)cc1 | 234 to 237
34 | Cc1cc(C)c(S(=O)(=O)NC(CN2CCCc3cc(C)ccc32)C(F)(F)F)c(C)c1 (stereo not drawn) | 143 to 144
35 | COCCOc1cc(NC(=O)OC(C)(C)C)c([N+](=O)[O-])cc1C#Cc1ccccc1 | 118 to 119
36 | COCCOc1ccc(CCCOC(=O)NS(N)(=O)=O)c(Oc2ncc(Cl)cc2Cl)c1 | 153 to 154
37 | CC(=O)OC1CSC(Oc2cc(-c3cccnc3)ccc2Cl)C(OC(C)=O)C1OC(C)=O (stereo not drawn) | 155
38 | O=C1CCC(N2Cc3c(OCc4ccc(CN5CCN(CC6CC6)CC5)cc4)cccc3C2=O)C(=O)N1 (stereo not drawn) | 176 to 178
39 | CCCc1nc2c(N)nc3c(c2n1CCCCC(=O)N1CCOCC1)CCCC3 | 158 to 160
40 | C=CCN(CC=C)C(=O)n1cnc(S(C)(=O)=O)n1 | 52 to 54
41 | Cc1cc(C(=O)NC(CCC(=O)OC(C)(C)C)C(=O)O)ccc1-c1c2cc(F)c(=O)cc-2oc2cc(O)c(F)cc12 (stereo not drawn) | 134 to 138
42 | COc1cccc([C@H]2O[C@H](CC(=O)Nc3cc(OC(C)C)c4oc(C(=O)O)cc4c3)C(=O)N(CC(C)(C)CO)c3ccc(Cl)cc32)c1OC | 189 to 190
43 | CC(=O)c1cccc(-c2ncc(N=CN(C)C)cn2)c1 | 146 to 148
44 | Nc1nccc(OCC(F)(F)F)c1N | 126 to 128

More lines, now with the values ahead:

Row | melting point [°C] | SMILES
45 | 209 to 210 | N#CN=C(Nc1cccnc1)NC(NC(=O)c1ccc(Cl)cc1)C12CC3CC(CC(C3)C1)C2 (stereo not drawn)
46 | 198 to 199 | Cc1c(C)c2c(c(C)c1NC(=O)CC(C)(C)C)C(C1CCCCC1)C(C)(C)O2 (stereo not drawn)
47 | 207 to 208 | Cc1ccc(NC(=O)c2ccccc2CN2C(=O)C3(COc4cc5c(cc43)CCO5)c3ccccc32)c(C)c1 (stereo not drawn)
48 | 208 to 212 | CCCn1c(=O)c(N=O)c(N)n(Cc2ccccc2)c1=O
49 | 169 to 171 | O=C1NCCN1c1ccc(C(F)(F)F)cc1
50 | 231 to 233 | O=c1[nH]c2cc(Cl)ccc2c(CCc2nnn[nH]2)c1-c1ccccc1
51 | 84 to 85 | CCS(=O)(=O)Nc1cc(-n2nnn(CCCF)c2=O)c(F)cc1Cl
52 | 153 to 155 | CC(C)(Cn1cnc2c(N)nc3ccccc3c21)CC1(C)OCCO1
53 | 197 to 199 | Cc1cccc2c(=O)[nH]c(C3CCN(CCCO)CC3)cc12
54 | 206 to 207 | Cc1ccc(C(O)c2c(OCc3ccccc3)c(=O)ccn2CCO)cc1 (stereo not drawn)
55 | 109 to 111 | CCOC(=O)C1(C(=O)OCC)CC(c2ccccc2[N+](=O)[O-])C(O)N1C=O (stereo not drawn)
56 | 265 to 266 | CCC(=O)Nc1ccc2ncnc(Nc3cccc(Br)c3)c2c1
57 | 184 to 186 | O=C1c2cc3nnn(Cc4ccccn4)c(=O)c3cc2OC2CCCN12 (stereo not drawn)
58 | 106 to 110 | CN(C)c1ccc(NC(=O)N(Cc2ccco2)C[C@H]2CCCC[C@H]2CN(Cc2ccco2)C(=O)Nc2ccc(N(C)C)cc2)cc1
59 | 175 to 176 | CCn1c(=O)c2c(nc(/C=C/c3ccc(OCCCCBr)cc3)n2C)n(CC)c1=O
60 | 156 | CC(Oc1ccc(C2CCOCC2)cc1)C(=O)O (stereo not drawn)
61 | 99 to 101 | COc1ccc(-n2nc(NC(=O)OC(C)(C)C)c3csc(N)c3c2=O)cc1
62 | 125 to 126 | COc1ccc2c(c1)N(CCNC(C)=O)C(c1ccccc1)CO2 (stereo not drawn)
63 | 171 to 173 | Cn1ncnc1COc1nn2c(-c3ccccc3F)nncc2c1-c1cc(F)cc(F)c1
64 | 288 to 290 | CCOP(=O)(OCC)c1cc2cc(S(N)(=O)=O)c(Cl)cc2[nH]c1=O
65 | 200 to 202 | CCN1CCCC1CNS(=O)(=O)c1ccc(Nc2ccnc3cc(Cl)ccc23)cc1 (stereo not drawn)
66 | 128 to 130 | CCOC(=O)CN1C(=O)c2cccc3c(Br)ccc1c23
67 | 189 to 191 | CCOCc1nc2c(N)nc3cccnc3c2n1CC(C)(C)OCCS(C)(=O)=O
68 | 59 to 61 | CCOC(=O)COc1ccc2c(c1)CCC2=O
69 | 135 to 136 | Nc1cc(I)c(I)cc1N
70 | 178 | O=C(N[C@H]1CC[C@H](CCN2CCN(c3nccc4c3CCO4)CC2)CC1)C1(O)CCC1
71 | 220 to 221 | CCCNC(=O)Cn1c(-c2ccc(Cl)cc2)nc2cccnc21

Row | melting point [°C] | SMILES
72 | 75 to 77 | Clc1ccc(-c2noc(CCC#Cc3ccccn3)n2)cc1
73 | 196 to 198 | COc1cc(OC)nc(C2(C#N)OC(=O)c3c(-c4ccccc4)ccnc32)n1 (stereo not drawn)
74 | 224 to 226 | COc1cc(-c2nn(C)c(C(N)=O)c2C)c(F)cc1Cl
75 | 72 to 75 | COC(=O)c1cc2c(n(Cc3ccc(C#N)cc3)c1=O)CCCCCC2
76 | 62 to 64 | CCCCCC(Br)C(Br)CC(Br)C(Br)CCCCCCCBr (stereo not drawn)
77 | 94 to 98 | COC(=O)[C@H](CCSC)NC(=O)c1ccc(NC(Cn2ccnc2)c2ccc(F)cc2)cc1-c1ccc(F)cc1 (stereo partly drawn)
78 | 224 | O=C1CCC(c2ccccc2)(c2ccccc2)[C@@H]2CN(C(=O)Cc3ccsc3)C[C@H]12 (racemic)
79 | 175 to 178 | NC(=O)c1cncnc1
80 | 164 to 165 | O=C1c2ccccc2C(=O)N1Cc1ccncc1
81 | 71 to 75 | COc1cc2ccc(COC(C)=O)cc2cc1OC
82 | 145 to 148 | CC(C)OC(=O)N1CCC(c2ccc3oc(-c4ccc(C(F)(F)F)cc4)nc3c2)CC1
83 | 181 | CCCCCCCCCCCCCCCCCCCCOC(=O)Nc1ccc(NC(=O)NS(=O)(=O)c2ccc3ccccc3c2)cc1
84 | 206 to 208 | CCC(C)(C)Nc1cccnc1N(C)C1CCN(C(=O)c2cc3cc([N+](=O)[O-])ccc3[nH]2)CC1
85 | 3.5 to 4.5 | Cc1ccccc1N=C=Nc1ccccc1C
86 | 51 to 52 | Brc1cnn(Cc2ccccc2)c1
87 | 165 to 166 | CN1C(=O)CN(c2cccc(Br)c2)NC1=O
88 | 225 to 228 | O[C@H]1CC[C@H](Nc2nccc(-n3nnc4ccccc43)n2)CC1
89 | 125 to 127 | Clc1ccc([C@@]2(Cn3ccnc3)OC[C@H](COc3ccc4c(c3)CCN(CCCc3ccc(-c5ccccc5)cc3)C4)O2)c(Cl)c1 (racemic)
90 | 150 to 152 | O=C(NCCCCC(NC(=O)OCC1c2ccccc2-c2ccccc21)C(=O)Oc1c(F)c(F)c(F)c(F)c1F)OCC1c2ccccc2Oc2ccccc21 (stereo not drawn)
91 | 55 to 57 | C=CCc1cc(Cl)c2ccccc2c1O
92 | 119 to 121 | NNc1ccc([N+](=O)[O-])cc1F
93 | 279 to 281 | Cc1nc2nn(-c3ccccc3)c(N)c2c(=O)[nH]1
94 | 156 to 157 | CS(=O)(=O)Nc1ccc(C(=O)C2CCN(CCc3cnc4ccccc4n3)CC2)cc1
95 | 160 to 162 | CNc1cccc(NC(=O)CO)c1C#N
96 | 56 to 57 | COC(=O)C1=Cc2ccccc2OC1
97 | 171 to 172 | CNC(=O)c1cnc2ccccc2c1-c1ccccn1
98 | 244 to 246 | CCC(CC)C(=O)N1CC(NC(=O)Nc2cccc(C(=O)O)c2)C(=O)N(CC(=O)c2ccccc2C)c2cc(C)ccc21 (stereo not drawn)
